PMC10247784, “Physiological activation of human and mouse bitter taste receptors by bile acids” (Communications Biology, 2023)

Biological target: T1, mouse Tas2r117 (Mus musculus, UniProt Q7M715)
T1 construct: expressed in transfected cells; host or cells: HEK293T-Gα16gust44
T1 sequence (Q7M715 1-330): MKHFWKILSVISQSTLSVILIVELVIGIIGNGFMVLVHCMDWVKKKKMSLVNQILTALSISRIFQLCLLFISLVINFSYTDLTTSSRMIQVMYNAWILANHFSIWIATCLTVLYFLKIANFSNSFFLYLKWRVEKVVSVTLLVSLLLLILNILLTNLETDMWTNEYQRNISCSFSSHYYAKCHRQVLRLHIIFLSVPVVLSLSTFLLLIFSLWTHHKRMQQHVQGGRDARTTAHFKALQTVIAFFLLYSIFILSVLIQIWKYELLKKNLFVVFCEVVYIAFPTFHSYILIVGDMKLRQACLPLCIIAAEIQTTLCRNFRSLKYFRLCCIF
Assay: Calcium imaging assay (FLIPR), HEK293T-Gα16gust44 cells transfected with mouse Tas2r117
Type: cell-based
Conditions: for Δ F/F: Tas2r117; for RLU: sheet Tas2r117, time trace
Protocol: This set of bile acids was chosen because of their commercial availability in high purities, their diversity within the class of bile acids and their previous detection and quantitation in human blood. Stock solutions were prepared in DMSO.
As basal growth medium for the HEK293T-Gα16gust44 cell line[17],[59] served Dulbecco’s modified eagle medium (DMEM) (Thermo Fisher Scientific, Darmstadt, Germany) supplemented with 10 % fetal bovine serum (Sigma-Aldrich, Steinheim, Germany), 2 mM L-glutamine (Sigma-Aldrich, Steinheim, Germany), 100 units/ml penicillin (Sigma Aldrich, Steinheim, Germany) and 100 µg/ml streptomycin (Sigma Aldrich, Steinheim, Germany). Growth conditions were 37 °C, 5 % CO2 and saturated air-humidity[60].
HEK293T-Gα16gust44 cells were seeded on poly-D-lysine (10 µg/ml) coated 96-well plates to reach a confluence of 40-60 % the next day. For transient transfection 150 ng of plasmid DNA containing the receptor of interest and 0.3 µl lipofectamine 2000 (Thermo Fisher Scientific, Darmstadt, Germany) per well were used and transfection took place according to the manual of lipofectamine 2000. […] The empty vector DNA (mock) was transfected as negative control[14],[41].
Cells were loaded using the calcium-sensitive fluorescent dye Fluo-4-AM (Abcam, Cambridge, Great Britain) in the presence of 2.5 mM probenecid (Sigma-Aldrich, Steinheim, Germany) the day after transfection[13],[41]. 1 h after loading, cells were washed with C1 buffer using a BioTek Cell Washer, incubated in the dark for half an hour and washed again. For automated agonist application and measurement of fluorescence changes, a FLIPR^TETRA device (Molecular Devices, San José, United States) was used. Viability of cells was tested by application of 100 nM Somatostatin 14 (Bachem, Bubendorf, Switzerland)[42].
Measured data were negative control corrected by subtracting the signal of the mock-transfected cells and exported to Microsoft Excel using the FLIPR software ScreenWorks 4.2. In Microsoft Excel software, standardization of maximum fluorescence intensities to the basal fluorescence and normalization to the buffer-only control was done to calculate the relative fluorescence changes (ΔF/F).
Initial screening experiments performed in duplicate wells were confirmed by at least one replication and representative traces were selected for display. All dose-response relationships were determined by three independent experiments (biological replicates) performed in duplicates (technical replicates). Threshold concentrations, defined as lowest substance concentrations leading to statistically significant elevated fluorescence changes in receptor-transfected cells compared with empty vector-transfected cells, were determined using SigmaPlot with Student’s t-test to evaluate statistical significance (p < 0.01).

Q: Which “Δ F/F” value (conc. 0,01 mM) does the source give for C[C@H](CCC(=O)NCC(=O)O)[C@H]1CC[C@H]2[C@@H]3[C@H](O)C[C@@H]4C[C@H](O)CC[C@]4(C)[C@H]3C[C@H](O)[C@]12C [Glycocholic Acid, glycocholic acid] here?
A: 0.04745

Q: What about the “Δ F/F” value (conc. 0,1 mM) of the same compound?
A: 0.1208

Q: And the “Δ F/F” value (conc. 0,03 mM)?
A: 0.08527

Q: And the “Δ F/F” value (conc. 0,3 mM)?
A: 0.126

Q: What about the “Δ F/F” value (conc. 0,0003 mM) of the same compound?
A: 0.0009082

Q: And the “Δ F/F” value (conc. 0,001 mM)?
A: -0.007003

Q: And the “Δ F/F” value (conc. 0,003 mM)?
A: 0.01508

Q: And the RLU (Time (s) 0)?
A: 0 RLU

Q: And the RLU (Time (s) 2)?
A: -1.6624 RLU

Q: What about the RLU (Time (s) 4) of the same compound?
A: 36.4597 RLU

Q: And the RLU (Time (s) 6)?
A: 6 RLU

Q: What about the RLU (Time (s) 8) of the same compound?
A: 8.49 RLU

Q: And the RLU (Time (s) 12)?
A: -1.574 RLU

Q: What about the RLU (Time (s) 14) of the same compound?
A: -17.8222 RLU

Q: What about the RLU (Time (s) 16) of the same compound?
A: -9.405 RLU

Q: What about the RLU (Time (s) 18) of the same compound?
A: -10.6465 RLU

Q: What about the RLU (Time (s) 18.797) of the same compound?
A: -31.8582 RLU

Q: What about the RLU (Time (s) 20.797) of the same compound?
A: -50.2175 RLU

Q: And the RLU (Time (s) 22.797)?
A: -35.3697 RLU

Q: What about the RLU (Time (s) 24.797) of the same compound?
A: -21.9519 RLU

Q: What about the RLU (Time (s) 26.797) of the same compound?
A: 21.3834 RLU

Q: What about the RLU (Time (s) 28.797) of the same compound?
A: 104.133 RLU

Q: What about the RLU (Time (s) 30.797) of the same compound?
A: 136.733 RLU

Q: What about the RLU (Time (s) 32.797) of the same compound?
A: 195.234 RLU

Q: And the RLU (Time (s) 34.797)?
A: 290.459 RLU

Q: What about the RLU (Time (s) 36.797) of the same compound?
A: 340.932 RLU

Q: What about the RLU (Time (s) 38.797) of the same compound?
A: 397.791 RLU

Q: What about the RLU (Time (s) 40.797) of the same compound?
A: 414.428 RLU

Q: And the RLU (Time (s) 42.797)?
A: 437.759 RLU

Q: And the RLU (Time (s) 44.797)?
A: 439.85 RLU

Q: And the RLU (Time (s) 46.797)?
A: 450.862 RLU

Q: What about the RLU (Time (s) 48.797) of the same compound?
A: 498.067 RLU

Q: What about the RLU (Time (s) 50.797) of the same compound?
A: 490.971 RLU

Q: What about the RLU (Time (s) 52.797) of the same compound?
A: 511.962 RLU

Q: What about the RLU (Time (s) 54.797) of the same compound?
A: 520.574 RLU

Q: What about the RLU (Time (s) 56.797) of the same compound?
A: 524.281 RLU

Q: And the RLU (Time (s) 58.797)?
A: 554.582 RLU

Q: What about the RLU (Time (s) 60.797) of the same compound?
A: 523.267 RLU

Q: What about the RLU (Time (s) 62.797) of the same compound?
A: 554.128 RLU

Q: What about the RLU (Time (s) 64.797) of the same compound?
A: 560.589 RLU

Q: And the RLU (Time (s) 66.797)?
A: 586.355 RLU

Q: What about the RLU (Time (s) 68.797) of the same compound?
A: 595.813 RLU

Q: And the RLU (Time (s) 70.797)?
A: 569.01 RLU

Q: And the RLU (Time (s) 72.797)?
A: 587.543 RLU

Q: What about the RLU (Time (s) 74.797) of the same compound?
A: 600.561 RLU

Q: What about the RLU (Time (s) 76.797) of the same compound?
A: 625.108 RLU

Q: And the RLU (Time (s) 78.797)?
A: 601.569 RLU

Q: And the RLU (Time (s) 80.797)?
A: 601.653 RLU

Q: And the RLU (Time (s) 82.797)?
A: 613.098 RLU

Q: And the RLU (Time (s) 84.797)?
A: 590.202 RLU

Q: What about the RLU (Time (s) 86.797) of the same compound?
A: 586.509 RLU

Q: What about the RLU (Time (s) 88.797) of the same compound?
A: 591.824 RLU

Q: And the RLU (Time (s) 90.797)?
A: 608.043 RLU

Q: What about the RLU (Time (s) 92.797) of the same compound?
A: 567.854 RLU

Q: And the RLU (Time (s) 94.797)?
A: 592.934 RLU

Q: What about the RLU (Time (s) 96.797) of the same compound?
A: 555.343 RLU

Q: What about the RLU (Time (s) 98.797) of the same compound?
A: 591.525 RLU

Q: What about the RLU (Time (s) 100.797) of the same compound?
A: 565.961 RLU

Q: What about the RLU (Time (s) 102.797) of the same compound?
A: 558.057 RLU

Q: What about the RLU (Time (s) 104.797) of the same compound?
A: 568.873 RLU

Q: What about the RLU (Time (s) 106.797) of the same compound?
A: 600.41 RLU

Q: And the RLU (Time (s) 108.797)?
A: 557.119 RLU

Q: What about the RLU (Time (s) 110.797) of the same compound?
A: 566.614 RLU

Q: What about the RLU (Time (s) 112.797) of the same compound?
A: 544.906 RLU

Q: And the RLU (Time (s) 114.797)?
A: 533.624 RLU

Q: And the RLU (Time (s) 116.797)?
A: 578.387 RLU

Q: And the RLU (Time (s) 118.797)?
A: 540.575 RLU

Q: And the RLU (Time (s) 120.797)?
A: 553.404 RLU

Q: What about the RLU (Time (s) 122.797) of the same compound?
A: 531.136 RLU

Q: And the RLU (Time (s) 124.797)?
A: 541 RLU

Q: And the RLU (Time (s) 126.797)?
A: 530.303 RLU

Q: And the RLU (Time (s) 128.797)?
A: 505.327 RLU

Q: What about the RLU (Time (s) 130.797) of the same compound?
A: 508.223 RLU

Q: And the RLU (Time (s) 132.797)?
A: 529.676 RLU

Q: And the RLU (Time (s) 134.797)?
A: 490.998 RLU

Q: What about the RLU (Time (s) 136.797) of the same compound?
A: 480.544 RLU

Q: What about the RLU (Time (s) 137.562) of the same compound?
A: 494.151 RLU

Q: And the RLU (Time (s) 143.578)?
A: 475.248 RLU

Q: And the RLU (Time (s) 149.578)?
A: 448.977 RLU

Q: And the RLU (Time (s) 155.578)?
A: 429.963 RLU

Q: What about the RLU (Time (s) 161.578) of the same compound?
A: 410.536 RLU

Q: And the RLU (Time (s) 167.578)?
A: 411.276 RLU

Q: What about the RLU (Time (s) 173.578) of the same compound?
A: 378.737 RLU

Q: And the RLU (Time (s) 179.578)?
A: 356.849 RLU

Q: What about the RLU (Time (s) 191.578) of the same compound?
A: 338.845 RLU

Q: And the RLU (Time (s) 197.578)?
A: 316.205 RLU

Q: What about the RLU (Time (s) 209.578) of the same compound?
A: 296.441 RLU

Q: And the RLU (Time (s) 221.578)?
A: 181.834 RLU

Q: And the RLU (Time (s) 233.578)?
A: 175.03 RLU

Q: And the RLU (Time (s) 239.578)?
A: 155.758 RLU

Q: What about the RLU (Time (s) 245.578) of the same compound?
A: 143.461 RLU

Q: And the RLU (Time (s) 293.578)?
A: 87.8538 RLU

Q: And the RLU (Time (s) 299.578)?
A: 79.8727 RLU

Q: And the RLU (Time (s) 305.578)?
A: 78.6198 RLU

Q: What about the RLU (Time (s) 311.578) of the same compound?
A: 69.0671 RLU

Q: And the RLU (Time (s) 317.578)?
A: 91.9062 RLU

Q: And the RLU (Time (s) 323.578)?
A: 87.6118 RLU

Q: What about the RLU (Time (s) 329.578) of the same compound?
A: 65.9416 RLU

Q: What about the RLU (Time (s) 335.578) of the same compound?
A: 41.2589 RLU

Q: What about the RLU (Time (s) 341.578) of the same compound?
A: 94.1086 RLU

Q: And the RLU (Time (s) 347.578)?
A: 67.2353 RLU

Q: And the RLU (Time (s) 353.578)?
A: 54.4225 RLU

Q: What about the RLU (Time (s) 359.578) of the same compound?
A: 85.0918 RLU

Q: What about the EC50 (calculated where receptor saturation was reached, read-out: EC50 Tas2r117) of the same compound?
A: 16 ± 2.5 µM

Q: And the “Activation threshold concentration Tas2r117” value (p < 0.01 vs empty vector)?
A: 3 µM
